The NIST ThermoML archive (doi:10.1016/j.jct.2013.11.013)
Several values for one entry are separate records, joined by “and”; a condition that tells them apart may be missing. Identical values can stand only once. Numbers after ± are expanded uncertainties.

Legend:
[1] = Crystal; for vapor or sublimation pressure: Calculated from knudsen effusion weight loss; for Normal melting temperature: DTA
[2] = Molar enthalpy of transition or fusion; conditions: Crystal; DSC
[3] = molar enthalpy of vaporization or sublimation; conditions: 298.15 K; Crystal; Static calorimetry

c1ccc2c(c1)Nc1ccccc1O2 [phenoxazine]
[1]
Conditions	vapor or sublimation pressure
333.18 K	9.52e-05 ± 1e-05 kPa and 9.41e-05 ± 1e-05 kPa and 9.09e-05 ± 9.6e-06 kPa
335.2 K	0.0001178 ± 1.3e-05 kPa and 0.000118 ± 1.3e-05 kPa and 0.0001119 ± 1.2e-05 kPa
337.1 K	0.0001463 ± 1.6e-05 kPa and 0.000143 ± 1.5e-05 kPa and 0.0001421 ± 1.5e-05 kPa
339.17 K	0.0001789 ± 1.9e-05 kPa and 0.0001744 ± 1.8e-05 kPa and 0.0001819 ± 1.9e-05 kPa
341.24 K	0.0002193 ± 2.3e-05 kPa and 0.0002141 ± 2.3e-05 kPa and 0.0002236 ± 2.4e-05 kPa
343.14 K	0.0002773 ± 2.9e-05 kPa and 0.0002712 ± 2.9e-05 kPa and 0.0002629 ± 2.8e-05 kPa
345.17 K	0.0003274 ± 3.5e-05 kPa and 0.0003216 ± 3.4e-05 kPa and 0.0003308 ± 3.5e-05 kPa
347.19 K	0.0004072 ± 4.3e-05 kPa and 0.0003893 ± 4.1e-05 kPa and 0.0004049 ± 4.3e-05 kPa
349.11 K	0.000488 ± 5.2e-05 kPa and 0.0004919 ± 5.2e-05 kPa and 0.0004776 ± 5.1e-05 kPa
351.17 K	0.000606 ± 6.4e-05 kPa and 0.0005906 ± 6.3e-05 kPa and 0.0006233 ± 6.6e-05 kPa
353.17 K	0.0007525 ± 8e-05 kPa and 0.000734 ± 7.8e-05 kPa and 0.0007159 ± 7.6e-05 kPa
355.1 K	0.0008813 ± 9.3e-05 kPa and 0.0008967 ± 9.5e-05 kPa and 0.0008889 ± 9.4e-05 kPa
357.1 K	0.001069 ± 0.00013 kPa and 0.001075 ± 0.00013 kPa and 0.001077 ± 0.00013 kPa

Conditions	Molar enthalpy of transition or fusion [kcal/mol]	Normal melting temperature [°C]	molar enthalpy [kcal/mol]
[1]	–	157.58 ± 0.39	–
[2]	5.14 ± 0.117	–	–
[3]	–	–	24.26 ± 0.191

c1ccc2c(c1)Nc1ccccc1S2 [10H-phenothiazine]
[1]
Conditions	vapor or sublimation pressure
357.16 K	0.0001222 ± 1.3e-05 kPa and 0.000127 ± 1.3e-05 kPa and 0.0001245 ± 1.3e-05 kPa
359.11 K	0.000157 ± 1.7e-05 kPa and 0.0001593 ± 1.7e-05 kPa and 0.000151 ± 1.6e-05 kPa
361.09 K	0.0001862 ± 2e-05 kPa and 0.0001894 ± 2e-05 kPa
363.16 K	0.0002302 ± 2.4e-05 kPa and 0.0002289 ± 2.4e-05 kPa and 0.0002278 ± 2.4e-05 kPa
365.1 K	0.0002854 ± 3e-05 kPa and 0.0002713 ± 2.9e-05 kPa and 0.0002851 ± 3e-05 kPa
367.08 K	0.0003408 ± 3.6e-05 kPa and 0.0003366 ± 3.6e-05 kPa and 0.0003279 ± 3.5e-05 kPa
369.16 K	0.0004206 ± 4.5e-05 kPa and 0.0004159 ± 4.4e-05 kPa and 0.0004168 ± 4.4e-05 kPa
371.1 K	0.0005122 ± 5.4e-05 kPa and 0.000496 ± 5.3e-05 kPa and 0.000513 ± 5.4e-05 kPa
373.09 K	0.0006118 ± 6.5e-05 kPa and 0.0005996 ± 6.4e-05 kPa
375.14 K	0.0007352 ± 7.8e-05 kPa and 0.0007169 ± 7.6e-05 kPa and 0.0007525 ± 8e-05 kPa
377.11 K	0.0008924 ± 9.5e-05 kPa and 0.0008545 ± 9.1e-05 kPa and 0.0008994 ± 9.5e-05 kPa
379.1 K	0.0009984 ± 0.00011 kPa and 0.0009874 ± 0.0001 kPa and 0.001053 ± 0.00013 kPa

Conditions	Molar enthalpy of transition or fusion [kcal/mol]	Normal melting temperature [°C]	molar enthalpy [kcal/mol]
[1]	–	185.70 ± 0.39	–
[2]	6.43 ± 0.143	–	–
[3]	–	–	24.69 ± 0.143
